Results published in patent publication US20250296971A1, “GASTRIC INHIBITORY PEPTIDE RECEPTOR LIGANDS” (priority 2021, published 2025).
*1 amine or outer side, *2 acyl side, *3 side chain or, on linkers, in order; H or OH if unused. Where a SMILES comes first, the peptide text is derived from it. Bridges are numbered along the chain shown (N, C = ends). [ ]: non-standard residue; d: D form. The star is where a group is joined. NH(1-deoxy-D-glucityl) = OC[C@@H](O)[C@@H](O)[C@H](O)[C@@H](O)CN*; DOTA = O=C(O)CN1CCN(CC(=O)O)CCN(CC(=O)*)CCN(CC(=O)O)CC1; Trp(5-Cl) = N[C@@H](Cc1c[nH]c2ccc(Cl)cc12)C(=O)O; Pyridine(2,6-diCH2) = c1cc(C[*:1])nc(C[*:2])c1; Pro(4R-NH2) = N[C@H]1CN[C@H](C(=O)O)C1; Glutaryl = O=C(CCCC(=O)[*:2])[*:1]; X1 = O=C(CN1CCC(N[*:1])CC1)[*:2]; Api = NC1(C(=O)O)CCNCC1

Columns and labels:
[1] = target: Recombinant soluble human NEP (Homo sapiens, UniProt P08473); assay: Proteolytic stability assay against NEP; settings: NEP 100 ng/mL, compound 10 μM, 37° C., % intact compound remaining
Human GIPR = target: T1, Human GIPR (Homo sapiens, UniProt P48546); assay: Radioligand binding assay, human GIPR; settings: 111In-labeled compound, 6 h, 37° C., read-out: pKD Category (converted)
T1 construct: host or cells: CHO-K1 or CHO-VGT
T1 sequence (P48546 22-466): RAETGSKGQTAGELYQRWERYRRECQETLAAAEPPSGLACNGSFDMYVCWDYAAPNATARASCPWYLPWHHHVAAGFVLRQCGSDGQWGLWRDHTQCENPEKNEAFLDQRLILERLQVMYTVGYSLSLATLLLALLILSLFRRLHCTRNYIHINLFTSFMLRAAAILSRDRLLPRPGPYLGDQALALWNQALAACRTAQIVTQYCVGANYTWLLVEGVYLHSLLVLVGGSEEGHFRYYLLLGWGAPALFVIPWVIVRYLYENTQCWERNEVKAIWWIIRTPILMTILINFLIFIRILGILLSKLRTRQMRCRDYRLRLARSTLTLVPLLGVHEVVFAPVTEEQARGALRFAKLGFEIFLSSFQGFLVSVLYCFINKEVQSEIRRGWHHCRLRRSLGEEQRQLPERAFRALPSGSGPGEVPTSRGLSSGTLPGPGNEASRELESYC
Description: In order to assess the affinity of ^111In-labeled compounds to the GIPR receptor of different species, a radioligand binding assay was established.
CHO-K1 cells (GenScript Biotech, #M00486) were stably transfected with the human GIPR. CHO-K1-hGIPR cells were cultured in Ham's F12 medium (Sigma-Aldrich, #N4888) including 10% fetal calf serum (FCS), 2 mM L-glutamine, 100 U/mL penicillin, 100 µg/mL streptomycin, 200 µg/mL Zeocin and 100 µg/mL HygromycinB. To evaluate the species cross-reactivity, CHO-VGT cells were transfected with the human, dog, rat and mouse GIPR (Inscreenex GmbH), which were cultured in DMEM/Ham's F12 Medium 1:1 (Biochrom, #F485) including 5% fetal calf serum (FCS), 2 mM L-glutamine, 100 U/mL penicillin and 100 μg/mL streptomycin. Cells were detached with Accutase (Biolegend, #BLD-423201) and counted using a particle counter (CASY Model TT; Schärfe Systems). Cell concentrations were adjusted to 3×10^5 mL^−1, and 1.000 μL of the suspension per well were dispensed into flat-clear-bottom 24 well plates.
Approximately 24 hours after re-seeding, the medium was aspirated and the cells were washed once with 700 μL assay medium (Ham's medium with 20 mM HEPES). […]
At the end of incubation time, cells were washed and subsequently harvested in 300 μL RIPA buffer containing PIC. Radioactivity of the cell lysate of each well was counted using a gamma counter (Perkin Elmer). […]

[2] = target: T2, GIPR (CHO-K1-hGIPR cells) (Homo sapiens, UniProt P48546); assay: FACS binding assay; settings: competition with 20 nM GIP-057, 4° C., 1 hour, read-out: pIC50 Category (converted)
T2 construct: host or cells: CHO-K1
T2 sequence (P48546 22-466): T1 sequence (P48546 22-466)
How it was run: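 Peptide binding read by flow cytometry as APC-channel median fluorescence, fitted with a four-parameter logistic to yield EC50 or IC50. Cells were hGIPR-transfected CHO-K1 in PBS with 1% FCS, detected with 1 μg/mL APC-streptavidin, 30 min on ice.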

[3] = Plasma stability assay, human plasma; assay type: in vitro ADME; settings: 37° C., % intact compound remaining after 4 h or 24 h
Description: In order to determine the stability of selected compounds of the invention in human and mouse plasma, a plasma stability assay was carried out. Such plasma stability assay measures degradation of compounds of the present invention in blood plasma. This is an important characteristic of a compound as compounds, with the exception of pro-drugs, which rapidly degrade in plasma, generally show poor in vivo efficacy. […] The stability is sufficient for the diagnostic, therapeutic and theragnostic use of these compounds according to the present invention.
The plasma stability samples were prepared by spiking 50 μL plasma aliquots (all K2EDTA) with 1 μL of a 0.5 mM compound stock solution in DMS0. After vortexing the samples were incubated in a Thermomixer at 37° C. for 0, 4 and 24 hours. After incubation the samples were stored on ice until further treatment. All samples were prepared in duplicates.
A suitable internal standard was added to each sample (1 μL of a 0.5 mM stock solution in DMSO). Protein precipitation was performed by addition of 250 μL of acetonitrile containing 1% trifluoroacetic acid. After incubation at room temperature for 30 min the precipitate was separated by centrifugation and 150 μL of the supernatant was diluted with 150 μL of 1% aqueous formic acid.
Additionally, recovery was determined by spiking a pure plasma sample that only contained the internal standard after treatment with a certain amount of the compound.
Carry-over was evaluated by analysis of a blank sample (20% acetonitrile) after the highest calibration sample.

Chain of Recombinant soluble human NEP (P08473 52-750 limits assumed): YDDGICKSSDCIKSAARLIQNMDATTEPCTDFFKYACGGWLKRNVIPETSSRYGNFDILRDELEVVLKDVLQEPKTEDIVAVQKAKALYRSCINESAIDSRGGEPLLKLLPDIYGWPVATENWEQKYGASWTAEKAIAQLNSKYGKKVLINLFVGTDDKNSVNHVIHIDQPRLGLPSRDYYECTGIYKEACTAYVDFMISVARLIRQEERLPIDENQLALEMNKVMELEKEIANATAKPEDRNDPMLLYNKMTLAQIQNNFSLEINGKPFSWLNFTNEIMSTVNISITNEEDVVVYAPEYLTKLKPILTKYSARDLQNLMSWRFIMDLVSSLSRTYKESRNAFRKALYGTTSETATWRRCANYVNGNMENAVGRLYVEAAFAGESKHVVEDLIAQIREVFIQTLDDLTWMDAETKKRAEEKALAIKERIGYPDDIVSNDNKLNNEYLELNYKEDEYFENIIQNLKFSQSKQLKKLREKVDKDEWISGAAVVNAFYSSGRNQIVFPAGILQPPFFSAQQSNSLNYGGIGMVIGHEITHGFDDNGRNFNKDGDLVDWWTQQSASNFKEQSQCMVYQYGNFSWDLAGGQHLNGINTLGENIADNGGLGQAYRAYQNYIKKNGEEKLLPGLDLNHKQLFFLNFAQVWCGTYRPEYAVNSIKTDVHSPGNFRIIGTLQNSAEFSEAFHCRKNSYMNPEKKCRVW

Structure (SMILES): CC[C@H](C)[C@@H]1NC(=O)[C@H](CC(C)C)NC(=O)C2(CCN(C(=O)CN3CCN(CC(=O)O)CCN(CC(=O)O)CCN(CC(=O)O)CC3)CC2)NC(=O)[C@@H](NC(=O)[C@@H](CC(C)C)NC(=O)[C@H](CCC(=O)O)NC(=O)[C@@H]2C[C@@H](N)CN2C(=O)[C@H](Cc2c[nH]c3ccc(Cl)cc23)NC(=O)[C@H](Cc2c[nH]c3ccccc23)NC(=O)[C@H](CC(=O)O)NC(=O)CCCC(=O)NC[C@H](O)[C@@H](O)[C@H](O)[C@H](O)CO)CSCc2cccc(n2)CSC[C@@H](C(=O)NC2CCN(CC(=O)N[C@H](CCC(=O)NC[C@H](O)[C@@H](O)[C@H](O)[C@H](O)CO)C(N)=O)CC2)NC1=O [GIP-001, AGLU-Glutar-Asp-Trp-5Clw-Tap-Glu-leu-[Cys(2Lut)-Apc(DOTA)-Leu-Ile-Cys]-APAc-glu(AGLU)-NH2] ({NH(1-deoxy-D-glucityl)-Glutaryl}-DW[Trp(5-Cl)][Pro(4R-NH2)]E[dL]C[Api](DOTA)LIC[X1][dE](NH(1-deoxy-D-glucityl))-NH2; linker 7-11 via Pyridine(2,6-diCH2))
- NEP stability category [1]: A (>80% intact after 24 hours)
- Kd (Human GIPR): < 0.316 nM
- IC50 [2]: < 10 nM
- Human plasma stability category [3]: A (>80% intact after 24 hours)
